Experimental data as given in patent publication US9939427B2, “Method for evaluating the scent performance of perfumes or perfume mixtures” (Symrise AG, priority 2013, dated 2018).
“Also recorded” adds a separate entry of the source.

Tests used:
OR5L1 = target: T1, OR5L1 (Homo sapiens, UniProt Q8NGL2); test: Ca-imaging of OR5L1-transfected HEK293 cells; format: cell-based; design: key: ▪: 18 olfactory receptors responded to 32 odorants in related with specific anosmia; settings: individual odorant 200 μM, significant response p<0.05
T1 construct: specific primers, which amplify the complete open reading frame; expressed in transfected cells; host or cells: HEK293
T1 sequence (Q8NGL2 whole entry): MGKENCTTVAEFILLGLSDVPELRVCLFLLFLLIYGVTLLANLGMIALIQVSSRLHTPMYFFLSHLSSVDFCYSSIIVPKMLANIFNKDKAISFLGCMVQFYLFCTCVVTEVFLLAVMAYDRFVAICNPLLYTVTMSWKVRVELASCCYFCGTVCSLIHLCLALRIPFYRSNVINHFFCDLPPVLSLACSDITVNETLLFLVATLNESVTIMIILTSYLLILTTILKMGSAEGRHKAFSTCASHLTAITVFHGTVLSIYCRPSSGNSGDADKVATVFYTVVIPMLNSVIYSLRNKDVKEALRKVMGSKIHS
Procedure: (§1) HEK293 cells were cultivated in Petri dishes (Ø35 mm) as previously described (Benbernou et al. 2007). We grow up HEK293 cells in culture medium containing standard DMEM with 10% heat-inactivated fetal bovine serum, 2 mM L-glutamine, 100 units/ml penicillin, and 100 units/ml streptomycin in a humidified atmosphere (37° C., 5% CO2). After 2-3 days, the transfection process was carried out, whereby the cell culture was 70-80% confluent. The calciumphosphate method was applied to transfect DNA plasmid transiently in HEK293 cells in case of Ca-imaging method.
(§2) Calcium cations and phosphate anions created crystal precipitations coupled with DNA which could invade into the cells through endocytosis. […]
(§3) Calcium imaging of the transfected HEK293 cells was done by using chambers determinate an inverted microscope (Olympus; IX70) using a 10× objective (CPIanFL N Olympus). Fluorescence emission was determined every 4 s by using a CCD camera (Charge Coupled Device, C9100 Hamamatsu). […] Odorants were manually monitored to drop each 4-5 s to transfected cells. […]
(§4) In experiments, Fura-2 Acetoxymethylester (Fura-2/AM) was applied. […] According to this feature, the analysis of 340/380 nm excitation ratio for Fura-2 allows to quantify intracellular calcium levels. […]

OR4C16 = target: T2, OR4C16 (Homo sapiens, UniProt Q8NGL9); test: Ca-imaging of OR4C16-transfected HEK293 cells; format: cell-based; design: key to OR4C16 responded to odorant: ▪: 18 olfactory receptors responded to 32 odorants in related with specific anosmia
T2 construct: specific primers, which amplify the complete open reading frame; expressed in transfected cells; host or cells: HEK293
T2 sequence (Q8NGL9 whole entry): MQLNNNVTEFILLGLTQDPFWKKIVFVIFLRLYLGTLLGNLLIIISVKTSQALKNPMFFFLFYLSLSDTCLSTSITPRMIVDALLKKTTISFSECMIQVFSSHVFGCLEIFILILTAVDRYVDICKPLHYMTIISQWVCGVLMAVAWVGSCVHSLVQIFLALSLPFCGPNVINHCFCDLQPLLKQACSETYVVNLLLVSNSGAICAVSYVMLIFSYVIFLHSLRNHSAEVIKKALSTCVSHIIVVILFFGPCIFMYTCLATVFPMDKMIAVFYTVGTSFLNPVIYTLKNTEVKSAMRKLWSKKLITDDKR
Procedure: as §1, §2, §3, §4

OR1B1-688 = test: Ca-imaging of mutant OR1B1-688 in HEK293 cells; format: cell-based, human; settings: 200 μM, applied for 20 seconds
Source text: (§5) Mutations were introduced for OR1B1 and OR10Q1 by Overlap Extension PCR (OEP). […] Flanking primers in combination with internal primers provided mutated gene segments, Full length primers included EcoRI and NotI restriction sites for further cloning into pCI expression vector. Site-directed mutations were selected for base of minor allele frequency of nucleotide.
(§6) In mutagenesis by overlap extension PCR method, initial PCRs provided mutated gene segments, with overlapping complementary 3′ ends carrying desired point mutation that were then mixed and used as template for a subsequent PCR to generate the full-length product. Overlapping strands of these intermediate products hybridize at this 3′ region in a subsequent PCR and are extended to generate the full-length product amplified by flanking primers; this shown in FIG. 2. […]
as §3, §4

[1] = test system: HEK293 cells transfected with all cofactors and pCI plasmids without ORs; test: Ca-imaging of control HEK293 cells without OR; format: cell-based; settings: for Number of cell responses in controls (FIG. 8, 11, 12): 200 μM, steroid comparison
Procedure: as §1
(§7) Calcium cations and phosphate anions created crystal precipitations coupled with DNA which could invade into the cells through endocytosis. Cells were transiently transfected with plasmid DNA which consists of pCI expression vector and PCR-amplified full-length cDNA of olfactory receptors candidates, and also Gα15, RTP1, Myr-Ric8A, HSC70, and m-Cherry as cofactors. The precipitation could be created after 15-20 min, with dropping the transfection solution on HEK293 cells. Before measuring by Ca-imaging cells were incubated 48-60 hours at 370 C, 5% CO2. Cationic liposome-mediated transfection method was applied to transfect DNA plasmid transiently in HANA3A cells in case of CRE-Luciferase and CRE-SEAP assays.
(§8) Calcium imaging of the transfected HEK293 cells was done by using chambers determinate an inverted microscope (Olympus; IX70) using a 10× objective (CPIanFL N Olympus). Fluorescence emission was determined every 4 s by using a CCD camera (Charge Coupled Device, C9100 Hamamatsu). The capillary tube which was responsible to supply odorants was generated closely above the cells. The columns filled with odorants, DMSO and ATP. Odorants were manually monitored to drop each 4-5 s to transfected cells. Solutions with drop wise form spread on HEK293 cells in 35 mm dishes.
(§9) In experiments, Fura-2 Acetoxymethylester (Fura-2/AM) was applied. The non-polar Fura2/AM is fluorescent but not yet calcium-sensitive. Once diffuses into cell plasma, Fura-2/AM is hydrolyzed to Fura-2 which is calcium-sensitive and functions as Ca2+ chelator. Regardless of the presence of calcium, Fura-2 emits at the wavelength of 510 nm. Once Fura-2 binds to free intracellular Ca2+ in cell plasma, its ratio of excitation at wavelengths of 340 nm and 380 nm is changed and correlated to the amount of intracellular Ca2+. According to this feature, the analysis of 340/380 nm excitation ratio for Fura-2 allows to quantify intracellular calcium levels.
(§10) In preparation for Ca-imaging measurements, transfected HEK293 cells were added 3 it Fura2/AM (3 μM) and incubated 30-45 min at 370 C, 5% CO2. After this step, experiments were carried out in a dark condition (Fura-2 is light-sensitive). After the incubation, medium of cell culture was replaced with 2 ml Ringer's solution.
(§11) Odorants were freshly prepared with DMSO as 1 M stocks solutions. Six mixtures (200 μM each chemical) were applied to cells sequentially (20 s each mixture/30 s Ringer). Those ORs tested with single odorants that had generated a response to odorant mixture group previously. Odorants were prepared in 100-200 μM concentration.
(§12) Ringer's solution was used for washing cells between measuring by two different odorants. Positive response was determined by the timing of the response, the strength of the response (more than twofold higher than the noise amplitude of the baseline), and the shape of the response curve (sharp rise in curve with gradual recovery). The typical shape of response curves was established by observing responses to repeated stimulation with 200 μM of odorants. After testing with single odorants at 100 μM, stimulating odorants were often retested at 200 μM concentrations. To confirm the result of every receptor that produced a significant response curves, the experiment was repeated for twelve times. Finally, cells were exposed to ATP (0.25 mM) which could activate P2Y receptor channel and induce Ca2+ influx into cells. […]

OR1B1-789 = target: T3, OR1B1-789 (Homo sapiens, UniProt Q8NGR6, C262W); test: Ca-imaging of mutant OR1B1-789 in HEK293 cells; format: cell-based; settings: 200 μM, applied for 20 seconds
T3 construct: Full length primers included EcoRI and NotI restriction sites for further cloning into pCI expression vector; Rho-tag (N); expressed in transfected cells; host or cells: HEK293
T3 sequence (Q8NGR6 whole entry C262W): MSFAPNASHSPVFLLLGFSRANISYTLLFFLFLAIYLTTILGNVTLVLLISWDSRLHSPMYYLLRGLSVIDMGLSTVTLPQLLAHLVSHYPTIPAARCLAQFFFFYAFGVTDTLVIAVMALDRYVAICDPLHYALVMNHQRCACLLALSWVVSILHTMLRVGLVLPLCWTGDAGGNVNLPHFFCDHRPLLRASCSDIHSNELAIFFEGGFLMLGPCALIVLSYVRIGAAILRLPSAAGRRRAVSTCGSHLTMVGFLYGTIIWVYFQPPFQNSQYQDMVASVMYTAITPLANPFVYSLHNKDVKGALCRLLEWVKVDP
Source text: as §5, §6, §3, §4

OR1B1-574 = target: T4, OR1B1-574 (Homo sapiens, UniProt Q8NGR6); test: Ca-imaging of mutant OR1B1-574 in HEK293 cells; format: cell-based; settings: 200 μM, applied for 20 seconds
T4 construct: Rho-tag (N); expressed in transfected cells; host or cells: HEK293
Source text: as §5, §6, §3, §4

OR1B1 = target: T5, OR1B1 (Homo sapiens, UniProt Q8NGR6); test: Ca-imaging of OR1B1-transfected HEK293 cells; format: cell-based; design: key to OR1B1 responded to odorant: ▪: 18 olfactory receptors responded to 32 odorants in related with specific anosmia; settings: for Number of cell responses of OR1B1 (FIG. 8): 200 μM, approximately 2000 cells in three times of measuring, steroid comparison; for Response of OR1B1 to odorant, in words: single odorants 200 μM; for Number of cell responses, Experiment (OR1B1): odorant 200 μM, approximately 2000 transfected cells in three times of measuring (Table 4, FIG. 5)
T5 construct: specific primers, which amplify the complete open reading frame; expressed in transfected cells; host or cells: HEK293
T5 sequence (Q8NGR6 1-317): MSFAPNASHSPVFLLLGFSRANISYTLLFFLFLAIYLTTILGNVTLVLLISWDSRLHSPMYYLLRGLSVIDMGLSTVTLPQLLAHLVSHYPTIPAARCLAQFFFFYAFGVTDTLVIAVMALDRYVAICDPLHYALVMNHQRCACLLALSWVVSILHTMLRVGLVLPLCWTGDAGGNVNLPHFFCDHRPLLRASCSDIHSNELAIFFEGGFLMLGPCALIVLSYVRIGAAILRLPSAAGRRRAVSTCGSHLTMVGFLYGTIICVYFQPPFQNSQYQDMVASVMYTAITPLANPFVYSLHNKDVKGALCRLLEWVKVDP
Procedure: as §1, §7, §8, §9, §10, §11, §12

OR4C3 = target: T6, OR4C3 (Homo sapiens, UniProt Q8NH37); test: Ca-imaging of OR4C3-transfected HEK293 cells; format: cell-based; design: key: ▪: 18 olfactory receptors responded to 32 odorants in related with specific anosmia; settings: individual odorant 200 μM, significant response p<0.05
T6 construct: specific primers, which amplify the complete open reading frame; expressed in transfected cells; host or cells: HEK293
T6 sequence (Q8NH37 whole entry): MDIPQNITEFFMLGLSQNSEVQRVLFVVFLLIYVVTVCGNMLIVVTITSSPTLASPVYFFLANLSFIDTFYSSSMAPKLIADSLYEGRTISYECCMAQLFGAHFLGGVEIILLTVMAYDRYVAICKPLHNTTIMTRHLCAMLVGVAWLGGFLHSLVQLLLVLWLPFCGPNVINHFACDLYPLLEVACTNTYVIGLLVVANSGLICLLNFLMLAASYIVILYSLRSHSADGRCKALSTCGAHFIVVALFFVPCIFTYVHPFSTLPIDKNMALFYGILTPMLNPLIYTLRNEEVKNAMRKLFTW
Procedure: as §1, §2, §3, §4

OR10C1 = target: T7, OR10C1 (Homo sapiens, UniProt Q96KK4); test: Ca-imaging of OR10C1-transfected HEK293 cells; format: cell-based; design: key: ▪: 18 olfactory receptors responded to 32 odorants in related with specific anosmia; settings: individual odorant 200 μM, significant response p<0.05
T7 construct: specific primers, which amplify the complete open reading frame; expressed in transfected cells; host or cells: HEK293
T7 sequence (Q96KK4 whole entry): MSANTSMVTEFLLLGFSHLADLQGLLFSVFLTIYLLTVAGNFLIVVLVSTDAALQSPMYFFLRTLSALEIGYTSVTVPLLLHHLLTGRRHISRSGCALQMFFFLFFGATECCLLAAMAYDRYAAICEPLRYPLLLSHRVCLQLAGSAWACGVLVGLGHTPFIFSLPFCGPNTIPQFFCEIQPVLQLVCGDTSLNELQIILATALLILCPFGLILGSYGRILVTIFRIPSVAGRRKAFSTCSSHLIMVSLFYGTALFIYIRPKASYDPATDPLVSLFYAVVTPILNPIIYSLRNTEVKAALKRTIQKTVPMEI
Procedure: as §1, §2, §3, §4

OR5I1 = target: T8, OR5I1 (Homo sapiens, UniProt Q13606); test: Ca-imaging of OR5I1-transfected HEK293 cells; format: cell-based; design: key to OR5I1 responded to odorant: ▪: 18 olfactory receptors responded to 32 odorants in related with specific anosmia
T8 construct: specific primers, which amplify the complete open reading frame; expressed in transfected cells; host or cells: HEK293
T8 sequence (Q13606 whole entry): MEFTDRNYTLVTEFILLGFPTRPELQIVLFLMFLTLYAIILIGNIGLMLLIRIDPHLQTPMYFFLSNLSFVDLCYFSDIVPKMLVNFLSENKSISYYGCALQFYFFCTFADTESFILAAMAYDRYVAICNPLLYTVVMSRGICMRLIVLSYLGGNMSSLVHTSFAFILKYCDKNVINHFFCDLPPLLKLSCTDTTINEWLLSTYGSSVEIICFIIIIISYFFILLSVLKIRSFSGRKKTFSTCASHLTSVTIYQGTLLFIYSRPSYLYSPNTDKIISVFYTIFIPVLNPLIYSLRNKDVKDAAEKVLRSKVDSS
Procedure: as §1, §2, §3, §4

[2] = HEK293 cells, individual odorant 200 μM, significant response p<0.05

CCCCCC1CCC(=O)O1 (centres unmarked) [Aldehyde C18]
OR5L1 responded to odorant (OR5L1): ▪
OR4C16 responded to odorant (OR4C16; [2]): ▪
Response of OR4C16 to odorant, in words (OR4C16; single odorants 200 μM): responded

C[C@]12CCC(=O)C[C@@H]1CC[C@@H]1[C@@H]2CC[C@]2(C)C=CC[C@@H]12 [Androstenon, 5α-Androst-16-en-3-one]
Response of OR1B1-688 in comparison to OR1B1 WT (OR1B1-688; listed as androstenone): no significantly different responses; also recorded: did not show any significant difference
Number of cell responses in controls (FIG. 8, 11, 12) [1]: 3
Number of cell responses, Control ([1]; odorant 200 μM, three times of measuring (Table 4, FIG. 5)): 0
Response of OR1B1-789 in comparison to OR1B1 WT (OR1B1-789; listed as androstenone): no significantly different responses; also recorded: did not show any significant difference
Response of OR1B1-574 in comparison to OR1B1 WT (OR1B1-574): not able to reproduce responses
Number of cell responses of OR1B1 (FIG. 8) (OR1B1): 13
OR1B1 responded to odorant (OR1B1; Ca-imaging, HEK293 cells, individual odorant 200 μM, significant response p<0.05): ▪
Response of OR1B1 to odorant, in words (OR1B1; Ca-imaging, listed as androstenone): significantly (P<0.05) activated; also recorded: responded
Number of cell responses, Experiment (OR1B1) (OR1B1; listed as Andorestenone): 20
Number of cell responses, Experiment (OR1B1) (OR1B1; listed as androstenone): 35

C/C=C/C(=O)C1=C(C)CCCC1(C)C [B-Damascone, β-Damascone]
OR4C3 responded to odorant (OR4C3): ▪
OR5L1 responded to odorant (OR5L1): ▪

CCCCCC1C(=O)CCC1CC(=O)OC (centres unmarked) [Hedione, Hedion]
OR10C1 responded to odorant (OR10C1): ▪

CC(C)CCC(=O)O [Isocaproic acid]
OR4C3 responded to odorant (OR4C3): ▪

CCCCCCCC=O [Octanal]
OR5I1 responded to odorant (OR5I1; [2]): ▪
Response of OR5I1 to odorant, in words (OR5I1; single odorants 200 μM): responded

CCC(C)=O [Odorant 2-butanone, 2-Butanone]
OR10C1 responded to odorant (OR10C1): ▪

C[C@]12CC[C@H]3[C@@H](CCC4=CC(=O)CC[C@@]43C)[C@@H]1CC[C@@H]2O [testosterone]
Response of OR1B1-688 in comparison to OR1B1 WT (OR1B1-688): no significantly different responses; also recorded: did not show any significant difference
Number of cell responses in controls (FIG. 8, 11, 12) [1]: 1
Response of OR1B1-789 in comparison to OR1B1 WT (OR1B1-789): no significantly different responses; also recorded: did not show any significant difference
Response of OR1B1-574 in comparison to OR1B1 WT (OR1B1-574): not able to reproduce responses
Number of cell responses of OR1B1 (FIG. 8) (OR1B1): 12
Response of OR1B1 to odorant, in words (OR1B1; Ca-imaging): responded
